Measurements from PMC9321231.

Assays:
[1] = system: caspase-3 in A549 cells; assay: Active caspase-3 flow cytometry; assay type: cell-based, human; settings: A549, 48 h; 10, 20 and 40 µM per method
Protocol: The rate of cell apoptosis and necrosis was detected using Annexin V-FITC/PI double staining. […] Compound 3e turned out to be a stronger inducer of apoptosis than 3c. […] In turn, compound 3c induced apoptosis only at the concentrations of 10 and 20 µM, and the percentage of cells undergoing apoptosis increased from 6.05 ± 0.17% in the control to 10.14 ± 0.76% and 14.67 ± 0.68%, respectively (Figure 4B). Moreover, compound 3e at a concentration of 5 µM induced apoptosis to a similar level as cisplatin (CDDP) used at a concentration of 4 µM. To identify the mechanism of the 3c- and 3e-induced apoptosis in the A549 cells, the activation of effector caspase-3 was evaluated by flow cytometry. […] To further explore the antiproliferative activity of compounds 3c and 3e, the influence of both compounds on the distribution of cell cycle phases in the A549 cells was analyzed. […]
The fluorescence-activated cell sorting (FACS) technique was employed to analyze the 3c- and 3e-induced cell death, the activation of executive caspase-3, and the cell cycle in the A549 cells. The quantitative analysis of apoptosis and necrosis was performed using an Annexin V-fluorescein isothiocyanate (FITC)/ propidium iodide (PI) apoptosis kit (BD Biosciences, BD Pharmingen™, San Jose, CA, USA) as previously described. […] The results were calculated as a percent of cells with active caspase-3 among all the analyzed cells. […]

[2] = system: urinary bladder carcinoma (UMUC-3) cells; assay: Antiproliferative assay (MTT or SRB), UMUC-3; assay type: cell-based, human; settings: for IC50: Homo sapiens, UMUC3, UMUC-3, read-out: IC50 ± SD, antiproliferative activity; for Calculated Selectivity Index SI: IC50 Balb/3T3 / IC50 UMUC-3
Protocol: (§1) Cell preparation, an in vitro antiproliferative assay, and MTT and SRB cytotoxic tests were performed according to the literature.

[3] = system: human breast adenocarcinoma (MDA-MB-231) cells; assay: Antiproliferative assay (MTT or SRB), MDA-MB-231; assay type: cell-based; settings: for IC50: Homo sapiens, MDA-MB-231, read-out: IC50 ± SD, antiproliferative activity; for Calculated Selectivity Index SI: IC50 Balb/3T3 / IC50 MDA-MB-231
Protocol: as §1

[4] = system: lung carcinoma (A549) cells; assay: Antiproliferative assay (MTT or SRB), A549; assay type: cell-based, human; settings: for IC50: Homo sapiens, A549, A-549, read-out: IC50 ± SD, antiproliferative activity; for Calculated Selectivity Index SI: IC50 Balb/3T3 / IC50 A-549
Protocol: as §1

[5] = system: A549 cells; assay: Apoptosis/necrosis assay, Annexin V-FITC/PI flow cytometry; assay type: cell-based, human; settings: for percentage of A549 cells undergoing apoptosis: 48 h, control 6.05 ± 0.17%; for induction of necrosis: A549, 48 h
Protocol: (§2) The rate of cell apoptosis and necrosis was detected using Annexin V-FITC/PI double staining. […] Compound 3e turned out to be a stronger inducer of apoptosis than 3c. […] In turn, compound 3c induced apoptosis only at the concentrations of 10 and 20 µM, and the percentage of cells undergoing apoptosis increased from 6.05 ± 0.17% in the control to 10.14 ± 0.76% and 14.67 ± 0.68%, respectively (Figure 4B). Moreover, compound 3e at a concentration of 5 µM induced apoptosis to a similar level as cisplatin (CDDP) used at a concentration of 4 µM. To identify the mechanism of the 3c- and 3e-induced apoptosis in the A549 cells, the activation of effector caspase-3 was evaluated by flow cytometry. […] To further explore the antiproliferative activity of compounds 3c and 3e, the influence of both compounds on the distribution of cell cycle phases in the A549 cells was analyzed. […] The G2 checkpoint prevents cells from entering mitosis when DNA is damaged, providing an opportunity for repair and stopping the proliferation of damaged cells. […] Apoptosis is a crucial process involved in the regulation of tumor formation and in the treatment response; therefore, cancer therapy has been linked to activation of the apoptosis signal transduction pathway. Caspase-3, an executioner caspase, plays an important role in apoptosis and becomes a primary target for cancer treatment.
(§3) The fluorescence-activated cell sorting (FACS) technique was employed to analyze the 3c- and 3e-induced cell death, the activation of executive caspase-3, and the cell cycle in the A549 cells. The quantitative analysis of apoptosis and necrosis was performed using an Annexin V-fluorescein isothiocyanate (FITC)/ propidium iodide (PI) apoptosis kit (BD Biosciences, BD Pharmingen™, San Jose, CA, USA) as previously described. To determine the active form of caspase-3, the A549 cells were plated into 6-well plates at a density of 6 × 10^5 cells/well. The next day, the growth medium was replaced with a fresh one supplemented with compound 3c or 3e (10, 20, and 40 µM) or the DMSO vehicle (0.1%; control cells). After 48-h incubation, the samples were harvested and the level of active caspase-3 was determined using the phycoerythrin (PE) Active Caspase-3 Apoptosis Kit (BD Pharmingen™) according to the manufacturer’s instructions. The stained cells were analyzed using FACS Calibur, and data were analyzed using Cell Quest Pro Version 6.0 (BD Biosciences, San Jose, CA, USA) for the Macintosh operating system. The results were calculated as a percent of cells with active caspase-3 among all the analyzed cells. The cell cycle analysis was performed by determination of the DNA contents on the basis of PI staining as previously described.
Figure 4 Effect of compounds 3c and 3e and cisplatin (CDDP) on apoptosis induction in the A549 cell line. After the 48-h exposure to the indicated concentrations of the compounds, the cells were stained with annexin (An) V-FITC)/propidium iodide (PI) and examined with flow cytometry. (A) The representative graphs obtained by flow cytometric analysis: dot plots indicate the percentage of An−/PI+ necrotic cells (Q1), An+ /PI+ late apoptotic cells (Q2), An−/PI− viable cells (Q3), and An+ /PI− early apoptotic cells (Q4). (B) Statistical analysis of the apoptotic (early + late apoptosis) and necrotic rate populations after the 3c, 3e, and cisplatin (CDDP) treatment. Data are presented as mean ± SD from three independent experiments; *** p < 0.001 in comparison to the control; one-way ANOVA followed by Dunnett’s post hoc test.

[6] = system: A549 cells; assay: Cell cycle analysis, PI staining flow cytometry; assay type: cell-based, human; settings: 48 h, control 6.20 ± 0.23%
Protocol: as §2, §3
Figure 6 Effect of compounds 3c and 3e on cell cycle distribution in A549 cells. After the treatment with the indicated concentrations of compounds 3c and 3e for 48 h, the cells were stained with propidium iodide and analyzed by flow cytometry. (A) Representative DNA histograms of A549 cells treated with compounds 3c and 3e. (B,C) Statistical analysis of the percentages of A549 cells in the sub-G1, G0/G1, S, and G2/M phases after treatment with compounds 3c and 3e, respectively. Data are expressed as means ± SD from three independent experiments. ** p < 0.01 and *** p < 0.001 in comparison to the control; one-way ANOVA followed by Tukey’s post hoc test.

[7] = system: human biphenotypic B myelomonocytic leukemia (MV4-11) cells; assay: Antiproliferative assay (MTT or SRB), MV4-11; assay type: cell-based; settings: for IC50: Homo sapiens, MV4-11, MV-4-11, read-out: IC50 ± SD, antiproliferative activity; for Calculated Selectivity Index SI: IC50 Balb/3T3 / IC50 MV-4-11
Protocol: as §1

[8] = system: normal mouse fibroblast (BALB/3T3) cells; assay: Antiproliferative assay (MTT or SRB), normal fibroblasts BALB/3T3; assay type: cell-based; settings: Balb/3T3 normal mouse fibroblasts; read-out: IC50 ± SD, antiproliferative activity
Protocol: Anticancer drugs are toxic to cancer cells, but also show some toxicity to healthy cells. […] The selectivity indexes for thiazoles 3a–3j against MV4-11 and A-549 cells were in general much higher than for MDA-MB-231 and UMUC-3 cells.
as §1

| SMILES | number of cells with active caspase 3 [1] | IC50 [2] | Calculated Selectivity Index SI [2] | IC50 [3] | Calculated Selectivity Index SI [3] | IC50 [4] | Calculated Selectivity Index SI [4] | percentage of A549 cells undergoing apoptosis ([5]; 10 µM) | percentage of A549 cells undergoing apoptosis ([5]; 20 µM) | induction of necrosis [5] | G2/M fraction of A549 cells ([6]; 5 µM) | G2/M fraction of A549 cells ([6]; 10 µM) | G2/M fraction of A549 cells ([6]; 20 µM) | IC50 [7] | Calculated Selectivity Index SI [7] | IC50 [8] | percentage of A549 cells undergoing apoptosis ([5]; 5 µM) |
| --- | --- | --- | --- | --- | --- | --- | --- | --- | --- | --- | --- | --- | --- | --- | --- | --- | --- |
| CCC1(CC)C(=O)N(c2ccc(-c3csc(Nc4cc(OC)c(OC)c(OC)c4)n3)cc2)C1=O [3c, 3,3-Diethyl-1-(4-(2-(3,4,5-trimethoxyphenylamino)thiazol-4-yl)phenyl)azetidine-2,4-dione] | concentration-dependent increase in the number of cells with active caspase 3 | 6.9 ± 0.21 µM | 1.07 | 6.38 ± 0.71 µM | 1.16 | 6.4 ± 0.08 µM | 1.16 | 10.14 ± 0.76% | 14.67 ± 0.68% | no induction of necrosis was observed | 9.69 ± 0.77% | 15.68 ± 5.31% | 29.04 ± 1.09% | 4.59 ± 2.03 µM | 1.62 | 7.42 ± 1.04 µM |  |
| CCC1(CC)C(=O)N(c2ccc(-c3csc(Nc4ccc(S(N)(=O)=O)cc4)n3)cc2)C1=O [3e, 4-(4-(4-(3,3-Diethyl-2,4-dioxoazetidin-1-yl)phenyl)thiazol-2-ylamino)benzenesulfo-namide] | concentration-dependent increase in the number of cells with active caspase 3 | 7.49 ± 0.64 µM | 0.88 | 6.42 ± 1.7 µM | 1.02 | 6.32 ± 0.89 µM | 1.04 | 14.45 ± 1.02% | 23.39 ± 0.31% | no induction of necrosis was observed | 9.08 ± 0.69% | 10.83 ± 1.06% | 35.78 ± 0.46% | 6.23 ± 0.42 µM | 1.05 | 6.57 ± 0.21 µM | 8.79 ± 0.50% |
